Source: patent publication US10660928B2, “Pharmaceutical composition containing combination extracts of Moutan Root Bark, Angelica Dahurica Root, bupleurum root or fractions thereof for prevention and treatment of neurodegenerative disorder” (UNIVERSITY-INDUSTRY COOPERATION GROUP OF KYUNG HEE …, priority 2014, dated 2020)

Assays:
[1] = tested on: BV2, the mouse microglial cell line; assay: Cell survival rate (calcein) in normal microglial cells, cytotoxicity; assay type: cell-based; settings: 1.0 μg/ml, 4 hours
Experimental: Particularly, BV2, the mouse microglial cell line, was inoculated in 1:1 DMEM (Dulbeco's Modified Eagle's Medium; Gibco, USA) supplemented with 10% FBS, followed by culture in a 37° C., 5% CO2/95% air (O2) incubator. Then, the cultured cells were transferred into a serum free medium at the density of 2.5×10^4 cells/well. The cells were treated with the Bupleurum Root 90% ethanol extract prepared in Example <1-3>, saikosaponin A, saikosaponin B2, saikosaponin B4, or saikosaponin D at the concentration of 1.0 μg/ml for 4 hours. The cells were collected and the cell survival rate was measured by using calcein. The survival rate of the cells that were increased or decreased compared with that of the normal control cells not-treated with the extract or its active component above and instead treated with DMSO was calculated and presented as percentage (%).

NF-kB p65/ReIA = assay: RT-PCR of NF-kB p65/ReIA mRNA, LPS-induced cells; assay type: cell-based, mouse; settings: BV2, treatment 1.0 μg/ml, LPS 100 ng/ml; negative control 100.00
Experimental: (§1) Particularly, BV2 cells were cultured by the same manner as described in Experimental Example <3-1>, and inflammatory response was induced. Then, RT-PCR was performed with the cells by the same manner as described in Experimental Example <1-4>, followed by quantitative analysis of the expression levels of iNOS, IL-6, and NF-kB p65/ReIA genes. The normal control was not treated with the extract of the invention or the active component thereof but treated with DMSO alone. The negative control was not treated with the extract or the active component but treated with 100 ng/ml of LPS alone to induce inflammatory response. Then, the expression of the inflammatory response marker gene was confirmed by the same manner as described above.

BV2 cells [2] = assay: Griess method, nitric oxide in medium of LPS-induced cells; assay type: cell-based, mouse; settings: BV2, treatment 1.0 μg/ml, inducer LPS 100 ng/ml
Experimental: Particularly, BV2 cells were cultured by the same manner as described in Experimental Example <3-1>, and inflammatory response was induced. Then, 100 μl of the cell culture medium was obtained, to which 100 μl of Griess reagent comprising hydrochloric acid containing 5% sulfanilamide and 2% naphthylethylenediamine was added, followed by reaction in a dark room for 30 minutes. Upon completion of the reaction, OD540 was measured with an EISA microplate reader (Versamax, USA). The concentration of nitric oxide in the medium was calculated using the standard calibration curve of sodium nitrite. The normal control was not treated with the extract or the active component thereof but treated with DMSO. The negative control was treated with 100 ng/ml of LPS alone to induce inflammatory response but not treated with the extract or the active component. Then, the nitric oxide concentration reduction effect was investigated by the same manner as described above.
(§2) Particularly, BV2 cells were cultured by the same manner as described in Experimental Example <3-1>, and inflammatory response was induced. Then, 100 μl of the cell culture medium was obtained, to which 100 μl of Griess reagent comprising hydrochloric acid containing 5% sulfanilamide and 2% naphthylethylenediamine was added, followed by reaction in a dark room for 30 minutes. Upon completion of the reaction, OD540 was measured with an EISA microplate reader (Versamax, USA). The concentration of nitric oxide in the medium was calculated using the standard calibration curve of sodium nitrite. To measure the ROS concentration, the cells were treated with 1 μM DCF-DA and 0.05 μM bisbenzimide (Hoechst 33342), followed by staining at 37° C. for 1 hour. After the staining, the fluorescence intensity of DCF-DA was measured at 485 nm/535 nm, and the fluorescence intensity of bisbenzimide was measured at 335 nm/460 nm. Based on the ratio of DCF-DA/bisbenzimide, ROS was quantified. The amount of ROS, either increased or decreased, was compared with that of the normal control not treated with the extract but treated with DMSO, and the results were presented as %. The negative control was treated with 100 ng/ml of LPS alone to induce inflammatory response but not treated with the extract or the active component thereof. Then, the nitric oxide concentration reduction effect and the ROS concentration reduction effect were investigated by the same manner as described above.

interleukin-6, (IL-6) = assay: RT-PCR of IL-6 mRNA, LPS-induced cells; assay type: cell-based, mouse; settings: BV2, treatment 1.0 μg/ml, LPS 100 ng/ml; negative control 100.00
Experimental: as §1

BV2 cells [3] = assay: MTT assay, LPS-induced inflammatory response; assay type: cell-based, mouse; settings: BV2, treatment 1.0 μg/ml, inducer LPS 100 ng/ml
Experimental: Particularly, BV2 cells were cultured by the same manner as described in Experimental Example <3-1>. Then, the cultured cells were transferred into a serum free medium at the density of 1×10^5 cells/well. The cells were treated with the Bupleurum Root 90% ethanol extract prepared in Example <1-3>, saikosaponin A, saikosaponin B2, saikosaponin B4, or saikosaponin D at the concentration of 1.0 μg/ml, followed by culture for 4 hours. The cells were then treated with 100 ng/ml of lipopolysaccharide (LPS), followed by culture for 20 hours to induce inflammatory response. MTT assay was performed with the cells induced with inflammatory response by the same manner as described in Experimental Example <1-2>. The damage of mitochondria complex 1 was confirmed to see how the damage level was either increased or decreased, compared with the normal control group treated with DMSO without the extract or its active component. In the meantime, the negative control group was treated with 100 ng/ml of LPS alone to induce inflammatory response and was not treated with the extract or its active component. Then, MTT assay was performed by the same manner as described above.

BV2 cells [4] = assay: DCF-DA intracellular ROS, LPS-induced cells; assay type: cell-based, mouse; settings: BV2, treatment 1.0 μg/ml, inducer LPS 100 ng/ml
Experimental: Particularly, BV2 cells were cultured by the same manner as described in Experimental Example <3-1>, and inflammatory response was induced. Then, the cells induced with inflammatory response were treated with 1 μM DCF-DA and 0.05 μM bisbenzimide (Hoechst 33342), followed by staining at 37° C. for 1 hour. After the staining, the fluorescence intensity of DCF-DA was measured at 485 nm/535 nm, and the fluorescence intensity of bisbenzimide was measured at 335 nm/460 nm. Based on the ratio of DCF-DA/bisbenzimide, ROS was quantified. The amount of ROS, either increased or decreased, was compared with that of the normal control not treated with the extract or the active component thereof but treated with DMSO, and the results were presented as %. The negative control was treated with 100 ng/ml of LPS alone to induce inflammatory response but not treated with the extract or the active component thereof. Then, the generation of ROS was investigated by the same manner as described above.
as §2

[5] = tested on: inducible nitric oxide synthase (iNOS); assay: RT-PCR of iNOS mRNA, LPS-induced cells; assay type: cell-based, mouse; settings: BV2, treatment 1.0 μg/ml, LPS 100 ng/ml; negative control 100.00
Experimental: as §1

Row | SMILES | Cell survival rate (% of control) [1] | p65/ReIA mRNA (% of control) (NF-kB p65/ReIA) | NO (BV2 cells [2]) | IL-6 mRNA (% of control) (interleukin-6, (IL-6)) | MTT (% of control) (BV2 cells [3]) | DCF-DA-ROS (% of control) (BV2 cells [4]) | iNOS mRNA (% of control) [5]
1 | C[C@H]1O[C@@H](O[C@H]2CC[C@@]3(C)[C@@H](CC[C@]4(C)[C@@H]3C=CC3=C5CC(C)(C)CC[C@]5(CO)[C@H](O)C[C@]34C)[C@]2(C)CO)[C@H](O)[C@@H](O[C@@H]2O[C@H](CO)[C@@H](O)[C@H](O)[C@H]2O)[C@H]1O [saikosaponin B2, (3b,4a,16a)-16,23,28-Trihydroxyoleana-11,13(18)-dien-3-yl-6-deoxy-3-O-beta-D-glucopyranosyl-beta-D-galactopyranoside] | 102.74 ± 8.55 % of control | 50.18 ± 2.67 % of control | 19 ± 2.68 µM | 29.67 ± 2.39 % of control | 88.85 ± 6.48 % of control | 214.22 ± 1.87 % of control | 18.11 ± 2.39 % of control
2 | CO[C@@H]1C=C2[C@@H]3CC(C)(C)CC[C@]3(CO)[C@H](O)C[C@@]2(C)[C@]2(C)CC[C@H]3[C@](C)(CO)[C@@H](O[C@@H]4O[C@H](C)[C@H](O)[C@H](O[C@@H]5O[C@H](CO)[C@@H](O)[C@H](O)[C@H]5O)[C@H]4O)CC[C@]3(C)[C@@H]12 [saikosaponin B4, (3β,11α,16α)-16,23,28-Trihydroxy-11-methoxyolean-12-en-3-yl-6-deoxy-3-O-β-D-glucopyranosyl-β-D-galactopyranoside] | 97.99 ± 2.86 % of control | 53.70 ± 4.72 % of control | 17.2 ± 2.11 µM | 28.53 ± 1.92 % of control | 87.12 ± 2.56 % of control | 223.26 ± 2.86 % of control | 26.06 ± 3.27 % of control
3 | C[C@H]1O[C@@H](O[C@H]2CC[C@@]3(C)[C@@H](CC[C@]4(C)[C@@H]3C=C[C@]35OC[C@@]6(CCC(C)(C)C[C@H]63)[C@H](O)C[C@]54C)[C@]2(C)CO)[C@H](O)[C@@H](O[C@@H]2O[C@H](CO)[C@@H](O)[C@H](O)[C@H]2O)[C@H]1O [saikosaponin D, (3b,4a,16a)-13,28-Epoxy-16,23-dihydroxyolean-11-en-3-yl 6-deoxy-3-O-beta-D-glucopyranosyl beta-D-galactopyranoside] | 97.45 ± 3.99 % of control | 49.80 ± 3.54 % of control | 18.1 ± 2.93 µM | 26.58 ± 1.75 % of control | 86.73 ± 1.25 % of control | 218.61 ± 2.71 % of control | 21.23 ± 1.99 % of control
